Data set [1] has as its system MDCK cells monolayer model. As to conditions: dog, 3 h, 10 µM.
A short description of data set [2]: Brain/plasma pharmacokinetic study in vivo. As to conditions: ICR mice. The method, then:
Further, the brain permeability of representative compounds was evaluated in ICR mice. After tail vein injection of a 1.5 mg/kg dose, the concentrations of the compounds in the brain and plasma were measured after 5 min and 60 min of administration, and the brain/plasma (B/P) ratio was calculated. […] On the contrary, compounds H42 and H52 performed high B/P ratios, which were consistent with our initial expectations. Among them, the B/P ratio of H42 reached balance rapidly in vivo and maintained above 3, while the proportion of H52 in the brain increased gradually and reached 4.41 at 60 min.
All animal experiments were complied with the ARRIVE guidelines and were carried out in accordance with the U.K. Animals Act, 1986 and associated guidelines. The ICR mice were used in plasma–brain distribution assay of compounds. After tail vein injection of a 1.5 mg/kg dose, the concentrations of the compounds in the brain and plasma were measured after 5 min and 60 min of administration, and the brain/plasma (B/P) ratio was calculated. The samples of plasma and brain tissue were prepared as previously reported. An established LC-MS/MS method was used for determining the concentration of representative compounds in plasma and brain tissue.

For another data set, the system named is glioblastoma (U87) cells. Put plainly: Antiproliferation in combination with TMZ, U87 cells. The following applies: combination with Temozolomide. The class given is cell-based, human. The method, then: (§1) The MTT assay was performed to detect the sensitivity of cells to anticancer drugs in vitro. The human A549, MCF7, and U87 tumour cells, as well as human BRCA mutant tumour cells (MX-1), were tested in this study. The cell culture was carried out in accordance with routine operations or instructions. Briefly, 5,000 cells were seeded in each well of a 96-well plate. After cell attachment to the bottom of the well, different concentrations of tested compounds were added into designated wells. After 48 h of incubation, 20 µL of MTT solution (5 mg/mL) were added to each well for cell staining. After 4 h, the media were removed and 150 µL of DMSO were added to each well. Finally, the absorbance was determined at 570 nm using a multifunctional microplate reader (TECAN).

Data set [3] deals with MX-1 (BRCA1 mutant tumour cells). Put plainly: MTT antiproliferation assay, MX-1 cells. The class given is cell-based. The following applies: Homo sapiens, MX1, breast cancer cell line, 48 h. The protocol:
(§2) Due to their acceptable inhibition rates (more than 50%) at the concentration of 50 nM, compounds H34, H42, H48, H50, and H52 were selected to evaluate the proliferation inhibition activity on several cancer cells, including BRCA1 mutant tumour cells (MX-1) and BRCA1 wild type tumour cells (MCF7 and A549).
as §1
On the technique in general: Tetrazolium assays rely on reduction of a dye to a coloured formazan, in cell work by metabolically active cells.

The target in the next data set is PARP-2 (Homo sapiens, UniProt Q9UGN5). In words: PARP-2 enzyme inhibition (IC50). The class given is biochemical. The text has this:
PARP-2 is the closest homolog of PARP-1, which also resides in the nucleus and functions similarly to PARP-1.

The next data set deals with A549 cells. In words: MTT antiproliferation assay, A549 cells. It is filed as cell-based. The following applies: Homo sapiens, lung cancer cell line, 48 h. The protocol: as §2, §1
A short description of a further data set: in vitro. As to conditions: dog, MDCK.
A further data set concerns the target T1, PARP-1 (Homo sapiens, UniProt P09874).
T1 construct: purchased BPS Bioscience 80580
In words: PARP-1 enzyme inhibition assay (BPS Bioscience PARP Colorimetric Assay Kit). It is filed as biochemical. The method, then: All target compounds were evaluated for PARP-1 enzyme inhibition activity at the concentration of 50 nM determined by previous pre-experiments.
The ability of the compounds to inhibit PARP-1 enzyme activity was assessed using BPS Bioscience's PARP Colorimetric Assay Kit (BPS Bioscience, Catalog # 80580). PARP-1 is known to catalyse the NAD-dependent addition of poly(ADP-ribose) to histones. The PARP-1 assay kit comes in a convenient 96-well format, with purified PARP-1 enzyme, histone mixture, activated DNA, and PARP-1 assay buffer. The key to the PARP-1 Colorimetric Activity Assay is the biotinylated substrate. With this kit, only three simple steps are required for PARP-1 reactions. First, histone proteins are coated on a 96-well plate. Next, the PARP-1 biotinylated substrate is incubated with an assay buffer that contains the PARP-1 enzyme. Finally, the plate is treated with streptavidin-HRP followed by the addition of the colorimetric HRP substrate to produce colour that can then be measured using a UV/Vis spectrophotometer microplate reader. IC50 values were calculated using GraphPad Prism5 software.

The next data set deals with MCF7 cells. Put plainly: MTT antiproliferation assay, MCF7 cells. It is filed as cell-based. The following applies: Homo sapiens, breast cancer cell line, 48 h. The protocol: as §2, §1

Like-named read-outs stand apart in the source and are kept apart here. Some results are limits rather than exact numbers.

Usually IC50 stands for the concentration at which inhibition is half-maximal. Read a high IC50 as lower potency. By Papp A→B is commonly meant how fast a substance crosses the layer from the apical side. Low readings indicate poor permeation, high ones ready permeation. In general, inhibition refers to the percentage by which the read-out fell short of the control. A lower inhibition goes with little suppression.

T1 sequence (P09874 whole entry): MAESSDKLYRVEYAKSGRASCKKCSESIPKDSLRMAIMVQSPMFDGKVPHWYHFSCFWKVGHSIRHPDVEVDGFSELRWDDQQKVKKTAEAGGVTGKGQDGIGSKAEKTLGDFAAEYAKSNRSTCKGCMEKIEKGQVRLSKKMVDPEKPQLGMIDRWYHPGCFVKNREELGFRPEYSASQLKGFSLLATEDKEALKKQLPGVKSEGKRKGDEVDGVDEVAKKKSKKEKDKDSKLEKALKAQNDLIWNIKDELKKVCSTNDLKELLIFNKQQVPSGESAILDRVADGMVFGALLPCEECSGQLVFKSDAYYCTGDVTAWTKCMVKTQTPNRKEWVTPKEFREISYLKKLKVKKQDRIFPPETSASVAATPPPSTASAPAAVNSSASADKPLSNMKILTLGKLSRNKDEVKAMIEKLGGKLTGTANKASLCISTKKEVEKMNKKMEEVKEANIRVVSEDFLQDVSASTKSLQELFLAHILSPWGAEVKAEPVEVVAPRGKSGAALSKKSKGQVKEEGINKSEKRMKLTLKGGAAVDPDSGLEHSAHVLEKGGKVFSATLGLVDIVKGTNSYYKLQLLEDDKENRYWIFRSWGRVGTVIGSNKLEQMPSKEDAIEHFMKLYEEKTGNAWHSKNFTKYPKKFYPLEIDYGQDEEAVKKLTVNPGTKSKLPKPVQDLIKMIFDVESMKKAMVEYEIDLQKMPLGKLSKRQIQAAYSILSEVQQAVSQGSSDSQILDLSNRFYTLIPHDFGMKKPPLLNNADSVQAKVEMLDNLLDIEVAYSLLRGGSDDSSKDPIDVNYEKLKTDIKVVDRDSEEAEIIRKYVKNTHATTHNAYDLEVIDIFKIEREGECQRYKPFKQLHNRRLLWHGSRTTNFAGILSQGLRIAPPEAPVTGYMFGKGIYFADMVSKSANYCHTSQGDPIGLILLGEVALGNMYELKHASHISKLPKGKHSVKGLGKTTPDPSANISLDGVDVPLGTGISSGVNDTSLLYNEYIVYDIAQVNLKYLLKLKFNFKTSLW
Sequence of PARP-2 (Q9UGN5 whole entry): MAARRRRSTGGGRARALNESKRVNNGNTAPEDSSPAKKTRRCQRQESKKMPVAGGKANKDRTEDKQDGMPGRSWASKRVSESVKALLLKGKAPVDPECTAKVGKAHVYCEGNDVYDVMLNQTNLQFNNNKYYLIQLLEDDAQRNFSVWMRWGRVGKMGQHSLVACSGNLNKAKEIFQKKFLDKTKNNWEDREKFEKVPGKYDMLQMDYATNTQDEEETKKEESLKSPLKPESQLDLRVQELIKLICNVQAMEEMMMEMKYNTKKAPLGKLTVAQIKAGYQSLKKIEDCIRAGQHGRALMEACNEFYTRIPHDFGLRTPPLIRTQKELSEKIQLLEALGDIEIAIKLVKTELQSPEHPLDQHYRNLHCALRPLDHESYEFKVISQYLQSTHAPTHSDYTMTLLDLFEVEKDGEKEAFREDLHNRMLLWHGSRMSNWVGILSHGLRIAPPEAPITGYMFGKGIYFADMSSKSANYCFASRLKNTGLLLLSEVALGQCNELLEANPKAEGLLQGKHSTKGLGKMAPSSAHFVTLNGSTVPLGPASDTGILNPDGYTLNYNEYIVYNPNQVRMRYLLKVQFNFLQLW

In [1], `O=C1NCC(c2ccc(-c3ccc(C(F)(F)F)cc3)cc2)Nc2ccccc21` (centres unmarked) [Compound H52, 2-(4′-(Trifluoromethyl)-[1,1′-biphenyl]-4-yl)-1,2,3,4-tetrahydro-5H-benzo[e][1,4]diazepin-5-one] yielded a Capical of 1.65 ± 0.05 µg/mL. This molecule also registered a Cbasolateral in data set [1] of 0.45 ± 0.07 µg/mL. Further, the B/P ratio in data set [2] (60 min after tail vein injection of 1.5 mg/kg, 1.5 mg/kg) was determined as 4.41 ± 0.07 fold. Moreover, the concentration at 5 min in [2] (mouse, brain, intravenous, 5 min after tail vein injection of 1.5 mg/kg, read-out: Brain) worked out at 1570 ± 264 ng/g; in data set [2] (mouse, plasma, intravenous, 5 min after tail vein injection of 1.5 mg/kg, read-out: Plasma) it was 719 ± 39.9 ng/mL. The concentration at 60 min in data set [2] (mouse, brain, intravenous, 60 min after tail vein injection of 1.5 mg/kg, read-out: Brain) was 2630 ± 118 ng/g; in data set [2] (mouse, plasma, intravenous, 60 min after tail vein injection of 1.5 mg/kg, read-out: Plasma), 597 ± 25 ng/mL. In addition, the Kp at 5 min in [2] (mouse, brain/plasma, intravenous, 5 min after tail vein injection of 1.5 mg/kg, read-out: B/P ratio) was found to be 2.18 ± 0.27. Further, the Kp at 60 min in data set [2] (mouse, brain/plasma, intravenous, 60 min after tail vein injection of 1.5 mg/kg, read-out: B/P ratio) is 4.41. In addition, the “Sensitisation effect in combination with TMZ” value in the data set with glioblastoma (U87) cells is “significant sensitisation effects”. For the same molecule, the IC50 in data set [3] worked out at 24.6 ± 3.7 µM; at PARP-2, 39.6 nM; in the data set with A549 cells, 157 ± 15.2 µM; on PARP-1, 30.2 nM; in the data set on MCF7 cells, 37.9 ± 3.5 µM. For the same molecule, in the data set “in vitro”, the apical-to-basolateral permeability (Papp A→B) at 3 h, 10 µM was determined as 19.7 ± 0.92 ×10⁻⁶ cm/s. Moreover, the inhibition at 0.05 µM against PARP-1 (compound concentration 50 nM, three independent tests) is over 50%.

Source of the values: publication PMC8942544, “Design and synthesis of benzodiazepines as brain penetrating PARP-1 inhibitors” (Journal of Enzyme Inhibition and Medicinal Chemistry, 2022).
